Drawing on ChEMBL document CHEMBL1121763, “2,3-Dihydrobenzofuran-2-ones: a new class of highly potent antiinflammatory agents” (J Med Chem, 1981), this text covers ED50 and IC50 for 24 molecules.

Where only a bound is given, the exact number is not on record here.

The first test relates to Rattus norvegicus. The test is described as follows: Inhibition of adjuvant-induced polyarthritis in rat following p.o. administration. The class given is functional. As to conditions: po.
For `CC1C(=O)Oc2cc(-c3ccccc3)ccc21` (configuration not stated), the 50% effective dose (ED50) (usually the dose that gives a 50% effect, or the effect in half of the subjects) turned out to be 14 mg/kg.

Consider `Cc1cc2c(cc1C1CCCCC1)OC(=O)C2`, for which the median effective dose (ED50) is 1.5 mg/kg.

Take `CC1C(=O)Oc2cc(C3CCCCC3)c(Cl)cc21` (configuration not stated): the ED50 was 1 mg/kg.

Take `O=C1Cc2cccc(C3CCCCC3)c2O1`: the ED50 was over 30 mg/kg.

Consider `COc1cc2c(cc1-c1ccccc1)OC(=O)C2`, for which the ED50 amounted to 30 mg/kg.

As for `O=C1Cc2cc(Br)c(C3CCCCC3)cc2O1`, the median effective dose (ED50) turned out to be 7 mg/kg.

As to `CCC1C(=O)Oc2cc(-c3ccccc3)ccc21` (configuration not stated), the median effective dose (ED50) was over 30 mg/kg.

Take `CC(C)Cc1ccc2c(c1)OC(=O)C2`: the median effective dose (ED50) is over 40 mg/kg.

As to `CC1C(=O)Oc2cc(-c3ccccc3)c(Cl)cc21` (configuration not stated), the ED50 was 2 mg/kg.

As to `COc1ccc2c(c1)c(CC(=O)O)c(C)n2C(=O)c1ccc(Cl)cc1` [INDOMETHACIN], the ED50 came out at 0.4 mg/kg.

For the molecule `CC1C(=O)Oc2cc(C3CCCCC3)ccc21` (configuration not stated), the ED50 came to 2.5 mg/kg.

For `O=C1Cc2ccc(-c3ccccc3)cc2O1`, the median effective dose (ED50) came out at 20 mg/kg.

Consider `Cc1cc2c(cc1C1CCCCC1)OC(=O)C2C` (configuration not stated), for which the ED50 is under 3 mg/kg.

As to `O=C1Cc2cc(Cl)c(C3CCCCC3)c(Cl)c2O1`, the 50% effective dose (ED50) is 30 mg/kg.

On to `O=C1Cc2cc(Cl)c(-c3ccccc3)cc2O1`, for which the 50% effective dose (ED50) was 3 mg/kg.

`O=C1Cc2ccc(C3CCCCC3)cc2O1`: the ED50 came to 20 mg/kg.

With `O=C1Cc2ccc(C3CCCCC3)c(Br)c2O1`, the median effective dose (ED50) is over 30 mg/kg.

As for `O=C(O)Cc1ccccc1Nc1c(Cl)cccc1Cl` [DICLOFENAC], the median effective dose (ED50) is 2 mg/kg.

`O=C1Cc2cc(Cl)c(C3CCCCC3)cc2O1` [CLOFURAC]: the ED50 worked out at 1 mg/kg.

Turning to `O=C1Cc2ccc(C3CCCC3)cc2O1`, the ED50 is 60 mg/kg.

As for `O=C1Cc2cc([N+](=O)[O-])c(C3CCCCC3)cc2O1`, the 50% effective dose (ED50) was 4 mg/kg.

The next test is filed under the species Rattus norvegicus. The test is described as follows: animal or person. The class given is functional. As to conditions: po, 3 h.
Description: Compound administered perorally for inhibition of carrageenan induced paw edema after 3h in rat
The molecule `CC1C(=O)Oc2cc(-c3ccccc3)ccc21` (configuration not stated) yielded a 50% effective dose (ED50) of 2.5 mg/kg.

`Cc1cc2c(cc1C1CCCCC1)OC(=O)C2` had an ED50 of 3 mg/kg.

As for `CC1C(=O)Oc2cc(C3CCCCC3)c(Cl)cc21` (configuration not stated), the ED50 was 0.3 mg/kg.

Take `O=C1Cc2cccc(C3CCCCC3)c2O1`: the median effective dose (ED50) was over 60 mg/kg.

`COc1cc2c(cc1-c1ccccc1)OC(=O)C2`: the 50% effective dose (ED50) was found to be 30 mg/kg.

Regarding `O=C1Cc2cc(Br)c(C3CCCCC3)cc2O1`, the 50% effect level (ED50) was put at a dose of 2 mg/kg.

In turn, `CCC1C(=O)Oc2cc(-c3ccccc3)ccc21` (configuration not stated) gave a 50% effective dose (ED50) of 25 mg/kg.

On to `CC(C)Cc1ccc2c(c1)OC(=O)C2`, for which the median effective dose (ED50) was 8 mg/kg.

Consider `CC1C(=O)Oc2cc(-c3ccccc3)c(Cl)cc21` (configuration not stated), for which the 50% effect level (ED50) was put at a dose of 0.3 mg/kg.

The molecule `COc1ccc2c(c1)c(CC(=O)O)c(C)n2C(=O)c1ccc(Cl)cc1` [INDOMETHACIN] displayed an ED50 of 2 mg/kg.

`CC1C(=O)Oc2cc(C3CCCCC3)ccc21` (configuration not stated) registered a median effective dose (ED50) of 0.8 mg/kg.

Take `O=C1Cc2ccc(-c3ccccc3)cc2O1`: it took a dose of 6 mg/kg to reach the 50% effect level (ED50).

As for `Cc1cc2c(cc1C1CCCCC1)OC(=O)C2C` (configuration not stated), the 50% effective dose (ED50) was found to be 6 mg/kg.

For `O=C1Cc2cc(C3CCCCC3)ccc2O1`, the ED50 is over 60 mg/kg.

Consider `O=C1Cc2cc(Cl)c(C3CCCCC3)c(Cl)c2O1`, for which the ED50 worked out at 2 mg/kg.

`O=C1Cc2cc(Cl)c(-c3ccccc3)cc2O1` came in with a 50% effective dose (ED50) of 1 mg/kg.

`O=C1Cc2ccc(C3CCCCC3)cc2O1` came in with an ED50 of 1 mg/kg.

Take `O=C1Cc2ccccc2O1`: the median effective dose (ED50) was over 60 mg/kg.

Molecule `O=C1Cc2ccc(C3CCCCC3)c(Br)c2O1` had a median effective dose (ED50) of 36 mg/kg.

`O=C(O)Cc1ccccc1Nc1c(Cl)cccc1Cl` [DICLOFENAC] registered an ED50 of 3 mg/kg.

`O=C1Cc2cc(Cl)c(C3CCCCC3)cc2O1` [CLOFURAC]: it took a dose of 0.5 mg/kg to reach the 50% effect level (ED50).

In turn, `O=C1Cc2ccc(C3CCCC3)cc2O1` had an ED50 of 30 mg/kg.

Molecule `O=C1Cc2cc([N+](=O)[O-])c(C3CCCCC3)cc2O1` showed a 50% effective dose (ED50) of 6 mg/kg.

`O=C1Cc2cc(O)c(-c3ccccc3)cc2O1`: the ED50 was over 30 mg/kg.

Another test deals with Cyclooxygenase (Bos taurus).
Assay: not given
Settings: not given
Turning to `CC1C(=O)Oc2cc(-c3ccccc3)ccc21` (configuration not stated), the 50% inhibitory concentration (IC50) (in general, the concentration at which inhibition is half-maximal) came out at 0.5 µM.

`Cc1cc2c(cc1C1CCCCC1)OC(=O)C2` returned an IC50 of 0.1 µM.

`CC1C(=O)Oc2cc(C3CCCCC3)c(Cl)cc21` (configuration not stated) gave a 50% inhibitory concentration (IC50) of 0.07 µM.

Regarding `O=C1Cc2cccc(C3CCCCC3)c2O1`, the IC50 was 100 µM. Against the preceding molecule, the IC50 is about 1400-fold higher.

Consider `COc1cc2c(cc1-c1ccccc1)OC(=O)C2`, for which the IC50 was 10 µM.

In turn, `O=C1Cc2cc(Br)c(C3CCCCC3)cc2O1` registered a half-inhibitory concentration (IC50) of 0.03 µM.

`CCC1C(=O)Oc2cc(-c3ccccc3)ccc21` (configuration not stated) yielded a concentration for half-maximal inhibition (IC50) of 50 µM.

Molecule `CC(C)Cc1ccc2c(c1)OC(=O)C2` displayed an IC50 of 3 µM.

The molecule `CC1C(=O)Oc2cc(-c3ccccc3)c(Cl)cc21` (configuration not stated) gave a 50% inhibitory concentration (IC50) of 0.08 µM.

The molecule `CC1C(=O)Oc2cc(C3CCCCC3)ccc21` (configuration not stated) registered an IC50 of 0.4 µM.

As for `O=C1Cc2ccc(-c3ccccc3)cc2O1`, the IC50 came to 0.7 µM.

`Cc1cc2c(cc1C1CCCCC1)OC(=O)C2C` (configuration not stated) displayed an IC50 of 0.1 µM.

With `O=C1Cc2cc(C3CCCCC3)ccc2O1`, the IC50 came to 10 µM.

Turning to `O=C1Cc2cc(Cl)c(C3CCCCC3)c(Cl)c2O1`, the 50% inhibitory concentration (IC50) turned out to be 1 µM.

`O=C1Cc2cc(Cl)c(-c3ccccc3)cc2O1` came in with an IC50 of 0.08 µM.

Regarding `O=C1Cc2ccc(C3CCCCC3)cc2O1`, the 50% inhibitory concentration (IC50) amounted to 0.8 µM.

`O=C1Cc2ccccc2O1`: the half-maximal inhibitory concentration (IC50) was over 100 µM.

Molecule `O=C1Cc2ccc(C3CCCCC3)c(Br)c2O1` came in with an IC50 of 3 µM.

The molecule `O=C1Cc2cc(Cl)c(C3CCCCC3)cc2O1` [CLOFURAC] returned an IC50 of 0.05 µM.

The molecule `O=C1Cc2ccc(C3CCCC3)cc2O1` returned a concentration for half-maximal inhibition (IC50) of 10 µM. Against the preceding molecule, the IC50 is about 200-fold higher.

`O=C1Cc2cc([N+](=O)[O-])c(C3CCCCC3)cc2O1` came in with a 50% inhibitory concentration (IC50) of 0.5 µM.

With `O=C1Cc2cc(O)c(-c3ccccc3)cc2O1`, the IC50 was found to be 50 µM.
